For the assay, the system named is IRE1-XBP1s (HEK293 T-REx cells stably expressing the XBP1-RLuc splicing reporter). Kind of assay: IRE1-XBP1s activation Assay (XBP1-RLuc splicing reporter, luminescence relative to thapsigargin, with or without IRE1 inhibitor 4μ8C). The class given is cell-based. The note with it: 18 h, compound 10 μM, luminescence as percentage signal relative to thapsigargin (Tg) (500 nM, 18 h). Here is the method:
IRE1-XBP1s activation Assay: HEK293 T-REx cells stably expressing the XBP1-RLuc splicing reporter were treated with an IRE1-XBP1s activator provided herein (10 μM) in the presence or absence of the IRE1 active site inhibitor 4μ8C (32 μM) for 18 h. Luminescence was shown as the percentage signal relative to thapsigargin (Tg) (500 nM, 18 h).
For `O=C(Nc1cnn(CC(=O)N2CCC[C@H](Oc3ccc(C(F)(F)F)cn3)C2)c1)[C@H]1COc2ccccc2O1` [Compound 188, (R)—N-(1-(2-oxo-2-((S)-3-((5-(trifluoromethyl)pyridin-2-yl)oxy)piperidin-1-yl)ethyl)-1H-pyrazol-4-yl)-2,3-dihydrobenzo[b][1, 4]dioxine-2-carboxamide], the activation at 10 µM was less than 30%. Under `O=C(Nc1cnn(CC(=O)N2CCC[C@H](Oc3ccc(C(F)(F)F)cn3)C2)c1)[C@@H]1COc2ccccc2O1` [Compound 189] stands less than 30%; under `CN(CCOc1ccc(C(F)(F)F)cn1)C(=O)Cn1cc(NC(=O)C2CNc3ccccc3O2)cn1` (stereo not shown) [Compound 191], less than 30%. Take `CN(CCOc1ccc(C(F)(F)F)cn1)C(=O)Cn1cc(NC(=O)[C@H]2COc3ccccc3O2)cn1` [Compound 192]: the activation at 10 µM was 30 to 50%.

For the molecule `Cc1ccc(OC2CCC23CN(C(=O)Cn2cc(NC(=O)C4CNc5ccccc5O4)cn2)C3)cc1` (stereo not shown) [Compound 193], the activation at 10 µM is less than 30%. With `Cc1ccc(OC2CCC23CCN(C(=O)Cn2cc(NC(=O)CCOc4cccc(C)n4)cn2)C3)cc1` (stereo not shown) [Compound 195, 3-((6-methylpyridin-2-yl)oxy)-N-(1-(2-oxo-2-(1-(p-tolyloxy)-6-azaspiro[3.4]octan-6-yl)ethyl)-1H-pyrazol-4-yl)propanamide], the activation at 10 µM is no less than 50%.

For the molecule `Cc1ccc(OC2CCCC23CN(C(=O)Cn2cc(NC(=O)CCOc4cccc(C)n4)cn2)C3)cc1` (stereo not shown) [Compound 196], the activation at 10 µM was no less than 50%. In the case of `Cc1ccc(OC2CCC23CN(C(=O)Cn2cc(NC(=O)C4COc5ccccc5O4)cn2)C3)cc1` (stereo not shown) [Compound 197] it was less than 30%; in that of `Cc1ccc(OC2CCCC23CN(C(=O)Cn2cc(NC(=O)C4CNc5ccccc5O4)cn2)C3)cc1` (stereo not shown) [Compound 198, N-(1-(2-oxo-2-(5-(p-tolyloxy)-2-azaspiro[3.4]octan-2-yl)ethyl)-1H-pyrazol-4-yl)-3,4-dihydro-2H-benzo[b][1, 4]oxazine-2-carboxamide], less than 30%. With `Cc1ccc(OC2CCCC23CN(C(=O)Cn2cc(NC(=O)C4COc5ccccc5O4)cn2)C3)cc1` (stereo not shown) [Compound 199], the activation at 10 µM is less than 30%. For `[2H]C([2H])([2H])c1ccc(OCCN(C)C(=O)Cn2cc(NC(=O)C3COc4ccccc4O3)cn2)cc1` (stereo not shown) [Compound 200], the activation at 10 µM was no less than 50%. `[2H]C([2H])([2H])c1ccc(OCCN(C)C(=O)Cn2cc(NC(=O)C3CNc4ccccc4O3)cn2)cc1` (stereo not shown) [Compound 201] yielded an activation at 10 µM of no less than 50%. As for `Cc1ccc(OCCN(C)C(=O)Cn2cc(NC(=O)[C@H]3CCc4ccccc4O3)cn2)cc1` [Compound 202], the activation at 10 µM is 30 to 50%. Under `Cc1ccc(OCCN(C)C(=O)Cn2cc(NC(=O)C3CNCC3Nc3ccnc(F)n3)cn2)cc1` (stereo not shown) [Compound 203] stands less than 30%. `Cc1ccc(OCCN(C)C(=O)Cn2cc(N(C)C(=O)C3=C(c4ccccc4)CCCC3)cn2)cc1` [Compound 205] yielded an activation at 10 µM of less than 30%. Molecule `Cc1ccc(OCCN(C)C(=O)Cn2cc(NC(=O)OC3CCCNC3)cn2)cc1` (stereo not shown) [Compound 206] displayed an activation at 10 µM of less than 30%.

These data come from US20260193244A1 (Protego Biopharma, Inc., priority 2022, published 2026).
